# Experimental data reported in patent publication US20240376099A1, “COMPOUNDS AND COMPOSITIONS AS INHIBITORS OF ENDOSOMAL TOLL-LIKE RECEPTORS” (Novartis AG, priority 2016, published 2024).
# Target: T1, TLR7 (Homo sapiens, UniProt Q9NYK1)
# T1 construct: Fresh blood was collected from normal human donors; endogenous in cells; host or cells: human PBMCs from fresh donor blood
# T1 sequence (Q9NYK1 27-1049): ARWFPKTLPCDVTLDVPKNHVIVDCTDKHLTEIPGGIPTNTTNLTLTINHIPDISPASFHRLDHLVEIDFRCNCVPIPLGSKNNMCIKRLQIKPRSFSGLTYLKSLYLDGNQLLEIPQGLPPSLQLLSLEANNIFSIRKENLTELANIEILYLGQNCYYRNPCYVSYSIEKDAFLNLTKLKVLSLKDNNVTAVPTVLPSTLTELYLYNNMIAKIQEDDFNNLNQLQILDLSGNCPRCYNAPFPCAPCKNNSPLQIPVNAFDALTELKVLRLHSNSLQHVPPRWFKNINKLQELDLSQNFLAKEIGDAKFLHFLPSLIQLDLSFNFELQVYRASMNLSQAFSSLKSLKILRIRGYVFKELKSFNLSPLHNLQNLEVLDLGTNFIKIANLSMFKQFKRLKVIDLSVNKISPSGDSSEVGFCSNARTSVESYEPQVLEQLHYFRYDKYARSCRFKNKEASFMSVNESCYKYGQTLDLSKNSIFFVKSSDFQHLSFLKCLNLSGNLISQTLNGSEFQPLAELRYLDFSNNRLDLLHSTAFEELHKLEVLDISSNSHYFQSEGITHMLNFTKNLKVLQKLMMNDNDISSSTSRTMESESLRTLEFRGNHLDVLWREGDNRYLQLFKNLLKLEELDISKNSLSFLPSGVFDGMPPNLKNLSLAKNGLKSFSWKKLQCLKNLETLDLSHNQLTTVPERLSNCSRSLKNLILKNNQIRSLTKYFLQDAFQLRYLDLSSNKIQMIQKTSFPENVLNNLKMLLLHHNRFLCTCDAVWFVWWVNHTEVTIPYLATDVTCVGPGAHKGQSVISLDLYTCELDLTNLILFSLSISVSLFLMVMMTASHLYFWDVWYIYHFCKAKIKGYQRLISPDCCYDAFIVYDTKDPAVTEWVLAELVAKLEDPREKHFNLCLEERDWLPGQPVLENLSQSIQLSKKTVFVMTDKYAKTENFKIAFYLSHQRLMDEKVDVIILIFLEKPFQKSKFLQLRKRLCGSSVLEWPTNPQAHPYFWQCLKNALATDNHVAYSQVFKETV
# Assay: huPBMC TLR7 Antagonist IFNα Assay
# Type: cell-based
# Details: human PBMCs stimulated with ssRNA40 10 μg/mL (DOTAP), 14-16 hrs; IFNα2b AlphaLISA read-out
# In short: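 Human PBMCs from fresh donor blood (150,000 cells/well) stimulated 14–16 h at 37 °C with DOTAP-complexed ssRNA40 (final 1 μg/ml for TLR8, 10 μg/mL for TLR7) or ODN2216 (final 0.3 μM, TLR9), 0.25% DMSO, ten-point 1/3 compound dilutions. Supernatant IL-6 read by HTRF (TLR8); IFNα by IFNα2b AlphaLISA (TLR7/TLR9).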
row,IC50,Structure (SMILES)
1,25 nM,"Cc1cc(N2CCc3c(c(C)nn3CC34CCC(N)(CC3)CC4)C2)c2cnn(C)c2n1 [Compound No. 1, 4-((5-(1,6-dimethyl-1H-pyrazolo[3,4-b]pyridin-4-yl)-3-methyl-4,5,6,7-tetrahydro-1H-pyrazolo[4,3-c]pyridin-1-yl)methyl)bicyclo[2.2.2]octan-1-amine]"
2,38 nM,"Cc1cc(N2CCc3c(c(C)nn3CC34CCC(N)(CC3)CC4)C2)c2cn[nH]c2n1 [Compound No. 2, 4-((3-methyl-5-(6-methyl-1H-pyrazolo[3,4-b]pyridin-4-yl)-4,5,6,7-tetrahydro-1H-pyrazolo[4,3-c]pyridin-1-yl)methyl)bicyclo[2.2.2]octan-1-amine]"
3,20 nM,"Cc1cc(N2CCc3c(c(C)nn3CC34CCC(N(C)C(=O)OC(C)(C)C)(CC3)CC4)C2)c2cnn(C)c2n1 [Compound No. 49, tert-butyl (4-((5-(1,6-dimethyl-1H-pyrazolo[3,4-b]pyridin-4-yl)-3-methyl-4,5,6,7-tetrahydro-1H-pyrazolo[4,3-c]pyridin-1-yl)methyl)bicyclo[2.2.2]octan-1-yl)(methyl)carbamate]"
4,6 nM,"CNC12CCC(Cn3nc(C)c4c3CCN(c3cc(C)nc5c3cnn5C)C4)(CC1)CC2 [Compound No. 50, 4-((5-(1,6-dimethyl-1H-pyrazolo[3,4-b]pyridin-4-yl)-3-methyl-4,5,6,7-tetrahydro-1H-pyrazolo[4,3-c]pyridin-1-yl)methyl)-N-methylbicyclo[2.2.2]octan-1-amine]"
5,7 nM,"Cc1cc(N2CCc3c(c(C)nn3CC34CCC(NC(=O)OC5(C)CC5)(CC3)CC4)C2)c2cnn(C)c2n1 [Compound No. 51, 1-methylcyclopropyl (4-((5-(1,6-dimethyl-1H-pyrazolo[3,4-b]pyridin-4-yl)-3-methyl-4,5,6,7-tetrahydro-1H-pyrazolo[4,3-c]pyridin-1-yl)methyl)bicyclo[2.2.2]octan-1-yl)carbamate]"
6,843 nM,"COc1ccc(Cn2ncc3c(N4CCc5c(c(C)nn5CC56CCC(N)(CC5)CC6)C4)cc(C)nc32)cc1 [Compound No. 53, 4-((5-(1-(4-methoxybenzyl)-6-methyl-1H-pyrazolo[3,4-b]pyridin-4-yl)-3-methyl-4,5,6,7-tetrahydro-1H-pyrazolo[4,3-c]pyridin-1-yl)methyl)bicyclo[2.2.2]octan-1-amine]"
7,3 nM,"Cc1cc(N2CCc3c(c(C)nn3CC34CCC(N5CCCC5)(CC3)CC4)C2)c2cnn(C)c2n1 [Compound No. 58, 5-(1,6-dimethyl-1H-pyrazolo[3,4-b]pyridin-4-yl)-3-methyl-1-((4-(pyrrolidin-1-yl)bicyclo[2.2.2]octan-1-yl)methyl)-4,5,6,7-tetrahydro-1H-pyrazolo[4,3-c]pyridine]"
8,4 nM,"Cc1cc(N2CCc3c(c(C)nn3CC34CCC(N5CCOCC5)(CC3)CC4)C2)c2cnn(C)c2n1 [Compound No. 59, 4-(4-((5-(1,6-dimethyl-1H-pyrazolo[3,4-b]pyridin-4-yl)-3-methyl-4,5,6,7-tetrahydro-1H-pyrazolo[4,3-c]pyridin-1-yl)methyl)bicyclo[2.2.2]octan-1-yl)morpholine]"
9,9 nM,"COCCNC12CCC(Cn3nc(C)c4c3CCN(c3cc(C)nc5c3cnn5C)C4)(CC1)CC2 [Compound No. 69, 4-((5-(1,6-dimethyl-1H-pyrazolo[3,4-b]pyridin-4-yl)-3-methyl-4,5,6,7-tetrahydro-1H-pyrazolo[4,3-c]pyridin-1-yl)methyl)-N-(2-methoxyethyl)bicyclo[2.2.2]octan-1-amine]"
10,10 nM,"Cc1cc(N2CCc3c(c(C)nn3CC34CCC(N(C)C5COC5)(CC3)CC4)C2)c2cnn(C)c2n1 [Compound No. 77, N-(4-((5-(1,6-dimethyl-1H-pyrazolo[3,4-b]pyridin-4-yl)-3-methyl-4,5,6,7-tetrahydro-1H-pyrazolo[4,3-c]pyridin-1-yl)methyl)bicyclo[2.2.2]octan-1-yl)-N-methyloxetan-3-amine]"
11,302 nM,"Cc1nn(CC23CCC(N)(CC2)CC3)c2c1CN(c1ccnc(-c3ccc(C#N)cc3)c1)CC2 [Compound No. 84, 4-(4-(1-((4-aminobicyclo[2.2.2]octan-1-yl)methyl)-3-methyl-6,7-dihydro-1H-pyrazolo[4,3-c]pyridin-5(4H)-yl)pyridin-2-yl)benzonitrile]"
12,56 nM,"Cc1cc(N2CCc3c(c(C)nn3CC34CCC(O)(CC3)CC4)C2)c2cnn(C)c2n1 [compound 46, 4-((5-(1,6-dimethyl-1H-pyrazolo[3,4-b]pyridin-4-yl)-3-methyl-4,5,6,7-tetrahydro-1H-pyrazolo[4,3-c]pyridin-1-yl)methyl)bicyclo[2.2.2]octan-1-ol]"
13,304 nM,"Cc1cc(N2CCc3nn(CC45CC(N)(C4)C5)c(C)c3C2)c2cnn(C)c2n1 [compound 52, 3-((5-(1,6-dimethyl-1H-pyrazolo[3,4-b]pyridin-4-yl)-3-methyl-4,5,6,7-tetrahydro-2H-pyrazolo[4,3-c]pyridin-2-yl)methyl)bicyclo[1.1.1]pentan-1-amine]"
14,4 nM,"Cc1cc(N2CCc3c(c(C)nn3CC34CCC(NC5CCC5)(CC3)CC4)C2)c2cnn(C)c2n1 [compound 54, N-cyclobutyl-4-((5-(1,6-dimethyl-1H-pyrazolo[3,4-b]pyridin-4-yl)-3-methyl-4,5,6,7-tetrahydro-1H-pyrazolo[4,3-c]pyridin-1-yl)methyl)bicyclo[2.2.2]octan-1-amine]"
15,5 nM,"Cc1cc(N2CCc3c(c(C)nn3CC34CCC(NC(C)C)(CC3)CC4)C2)c2cnn(C)c2n1 [compound 55, 4-((5-(1,6-dimethyl-1H-pyrazolo[3,4-b]pyridin-4-yl)-3-methyl-4,5,6,7-tetrahydro-1H-pyrazolo[4,3-c]pyridin-1-yl)methyl)-N-isopropylbicyclo[2.2.]octan-1-amine]"
16,7 nM,"Cc1cc(N2CCc3c(c(C)nn3CC34CCC(NC(C)CO)(CC3)CC4)C2)c2cnn(C)c2n1 (stereo not drawn) [compound 56, 2-((4-((5-(1,6-dimethyl-1H-pyrazolo[3,4-b]pyridin-4-yl)-3-methyl-4,5,6,7-tetrahydro-1H-pyrazolo[4,3-c]pyridin-1-yl)methyl)bicyclo[2.2.2]octan-1-yl)amino)propan-1-ol]"
17,7 nM,"CCNC12CCC(Cn3nc(C)c4c3CCN(c3cc(C)nc5c3cnn5C)C4)(CC1)CC2 [compound 57, 4-((5-(1,6-dimethyl-1H-pyrazolo[3,4-b]pyridin-4-yl)-3-methyl-4,5,6,7-tetrahydro-1H-pyrazolo[4,3-c]pyridin-1-yl)methyl)-N-ethylbicyclo[2.2.]octan-1-amine]"
18,4 nM,"Cc1cc(N2CCc3c(c(C)nn3CC34CCC(N5CCC5)(CC3)CC4)C2)c2cnn(C)c2n1 [compound 64, 1-((4-(azetidin-1-yl)bicyclo[2.2.2]octan-1-yl)methyl)-5-(1,6-dimethyl-1H-pyrazolo[3,4-b]pyridin-4-yl)-3-methyl-4,5,6,7-tetrahydro-1H-pyrazolo[4,3-c]pyridine]"
19,5 nM,"CCOCCNC12CCC(Cn3nc(C)c4c3CCN(c3cc(C)nc5c3cnn5C)C4)(CC1)CC2 [compound 71, 4-((5-(1,6-dimethyl-1H-pyrazolo[3,4-b]pyridin-4-yl)-3-methyl-4,5,6,7-tetrahydro-1H-pyrazolo[4,3-c]pyridin-1-yl)methyl)-N-(2-ethoxyethyl)bicyclo[2.2.2]octan-1-amine]"
20,37 nM,"CCOCCN(CCOCC)C12CCC(Cn3nc(C)c4c3CCN(c3cc(C)nc5c3cnn5C)C4)(CC1)CC2 [compound 72, 4-((5-(1,6-dimethyl-1H-pyrazolo[3,4-b]pyridin-4-yl)-3-methyl-4,5,6,7-tetrahydro-1H-pyrazolo[4,3-c]pyridin-1-yl)methyl)-N,N-bis(2-ethoxyethyl)bicyclo[2.2.2]octan-1-amine]"
21,7 nM,"Cc1cc(N2CCc3c(c(C)nn3CC34CCC(N5C[C@@H](O)[C@@H](O)C5)(CC3)CC4)C2)c2cnn(C)c2n1 [compound 74, (3S,4R)-1-(4-((5-(1,6-dimethyl-1H-pyrazolo[3,4-b]pyridin-4-yl)-3-methyl-4,5,6,7-tetrahydro-1H-pyrazolo[4,3-c]pyridin-1-yl)methyl)bicyclo[2.2.2]octan-1-yl)pyrrolidine-3,4-diol]"
